Reference: patent US10072026B2, “Crystalline form of 3-((1R,3s,5S)-3-((7-((5-methyl-1H-pyrazol-3-yl)amino)-1,6-naphthyridin-5-yl)amino)-8-azabicyclo[3.2.1]octan-8-yl)propanenitrile” (priority 2015, dated 2018)
Where two headings read alike, the source gives them in different places.

Experiments:
[1] = Solid state stability assessment; type: physicochemical; design: Impurity at RRT 0.96 / Impurity at RRT 1.84: unit not given here
Text: Solid State Stability Assessment
At specific intervals, the contents of a representative sample was removed and analyzed by HPLC for chemical purity and by Karl Fischer for water content.

[2] = Dynamic moisture sorption assessment; type: physicochemical
Method: The DMS run was performed isothermally at 25° C.

[3] = Pharmacokinetics in plasma and the GI tract in rats; type: in vivo, Sprague Dawley rats; details: rat, 5 mg/kg oral, all time points (0.5-24 hr); below limit of quantitation
Method: Assay 6: Pharmacokinetics in Plasma and the GI Tract in Rats and Dogs A test compound was dosed to male Sprague Dawley rats (n=3) as described in Assay 5. […] At all time points, the plasma concentration was below the limit of quantitation of 0.001 μg/mL.

[4] = First in human study of safety, tolerability and pharmacokinetics in healthy subjects; type: in vivo; details: for Cmax at 14 days / Cmax: human, plasma, oral, healthy subjects; for Cmax at 14 days: 14 days administration up to 300 mg; for Cmax: single dose up to 1000 mg
Method: Assay 9: First in Human Study to Evaluate the Safety, Tolerability and Pharmacokinetics in Healthy Subjects
The compound of Example 1 was evaluated in a double-blinded, randomized, placebo-controlled, single ascending dose (SAD) and multiple ascending dose (MAD) study of safety, tolerability, and pharmacokinetics in healthy subjects. Pharmacokinetic samples were collected up to 72 hours post the final dose in both the SAD study (after the first dose) and MAD study (after 14 days of once-daily dosing). The SAD study enrolled 5 cohorts and the MAD study enrolled 4 cohorts totaling 72 subjects, of which 71 completed the dosing period.
Plasma pharmacokinetic (PK) parameters were determined by non-compartmental analysis using WinNonLin Version 6.4.0 (Pharsight, St Louis, Mo.). The plasma PK parameter presented here is:
Cmax: maximum concentration in plasma

[5] = test system: oxazolone-induced colitis; experiment: Mouse model of oxazolone-induced colitis; type: in vivo, BALB/C mice
How it was run: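 Adult BALB/c mice skin-sensitized with 4% oxazolone on day 1, then challenged intrarectally 7 days later with 50 μL 1% oxazolone. Compound dosed PO, BID or TID, starting one day before challenge. Blinded Disease Activity Index (stool consistency, bleeding, weight loss, averaged) scored 2 days post-challenge.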

mouse splenic NK cells = experiment: Immunosuppression effects in mouse splenic natural killer (NK) cells; type: in vivo, Balb/C mice; details: mouse spleen, PO BID three days
Method: Adult male Balb/C mice (12-14 weeks of age) from Harlan were used for the study. […] Spleens were harvested 1 or 2 h post last dose and crushed immediately for cell subtype staining. Prior to fixation, fluorophore-labelled antibodies for CD19 (FITC; B cells), CD3e (PE; pan T cells) and DX5 (APC; NK cells) were incubated with splenocyte samples from each animal to allow for simultaneous, multiple subtype % analysis on the flow cytometer. The number of total spleen cells for each animal was measured by Scepter™ 2.0 Handheld Automated Cell Counter. The absolute number of lymphocyte subtype population (e.g., splenic B, T and NK cells) was calculated from the percentage of each subtype times total spleen cells for each animal. A one way ANOVA, with Dunnett's post hoc test, was used to compare the splenic lymphocytes number of the vehicle and test compound groups. The a level was set at p<0.05. Data were presented as the mean±SEM for each group.

[6] = test system: IL-4 induced STAT6 phosphorylation in THP-1 human monocytic cells; experiment: Cellular JAK potency assay, THP-1; details: Homo sapiens, THP-1, read-out: THP-1 IL4 pIC50 (converted)
[7] = test system: IL-13 induced STAT6 phosphorylation in BEAS-2B human lung epithelial cells; experiment: AlphaScreen cellular JAK potency assay, BEAS-2B; details: Homo sapiens, BEAS-2B, read-out: BEAS2B pIC50 (converted)
[8] = Pharmacokinetics in plasma and the GI tract in dogs; type: in vivo; details: male, beagle, GI tissue (duodenum, ileum, cecum, colon) and plasma, dog, 5 mg/kg oral
Method: Assay 6: Pharmacokinetics in Plasma and the GI Tract in Rats and Dogs
An analogous experiment was performed in dogs. Male beagle dogs (n=2) were dosed via oral gavage with 5 mg/kg of test compound, formulated as above. In dog number 1, plasma samples were taken at 0.25, 1, 2, 4, 6, and 24 hr post dosing. In dog number 2, plasma samples were taken to 6 hr. In both dog number 1 (at 24 hr) and dog number 2 (at 6 hr) the GI tract was removed and segmented as follows: duodenum, ileum, cecum and the colon segmented into equal thirds (proximal, middle, and distal colon). For each of the GI segments, an approximately 2 cm piece was excised in the middle of the segment. Each was washed thoroughly in ice cold PBS buffer and then homogenized in 5 volumes of PBS buffer and analyzed as above. […] The GI tissue to plasma ratio ranged from about 7 to about 30 for collections conducted at 24 hours post oral dose.

in vivo = experiment: in vivo; design: species or system Sprague Dawley rats; details: Sprague Dawley, rat, po, 5 mg/kg
Method: Assay 5: Colon Pharmacokinetics in Rats
Test compounds were individually formulated in 0.5% methyl-cellulose in water and dosed via oral gavage at 5 mg/kg to Sprague Dawley rats. At various time points (typically 1, 2, 4, 6, 24 hr) post dosing, blood samples were removed via cardiac puncture and intact colons were excised from the rats. Blood samples were centrifuged at 1500×g for 15 min to collect plasma. Colons were washed with ice cold phosphate buffered saline (PBS), weighed, and homogenized at a dilution of 1:10 in PBS. Plasma and colon levels of test compound were determined by LC-MS analysis against analytical standards constructed into a standard curve in the test matrix. A colon to plasma ratio was determined as the ratio of the colon AUC to the plasma AUC in μg hr/g.

[9] = read-out: average Cmax plasma concentration
[10] = read-out: individual subject Cmax

Question: Which results are given for `Cc1cc(Nc2cc3ncccc3c(N[C@@H]3C[C@H]4CC[C@@H](C3)N4CCC#N)n2)n[nH]1` [Form I, 3-((1R,3s,5S)-3-((7-((5-methyl-1H-pyrazol-3-yl)amino)-1,6-naphthyridin-5-yl)amino)-8-azabicyclo[3.2.1]octan-8-yl)propanenitrile]?
Answer: changes in chemical content and impurity profile ([1]; 3 months at 40° C. and 75% relative humidity): no statistically significant changes; Assay ([1]; T = 0): 97.4 % w/w; HPLC purity ([1]; T = 0): 99.76 a/a %; Impurity at RRT 0.96 ([1]; T = 0): 0.07; Impurity at RRT 1.84 ([1]; T = 0): 0.08; Water (KF) ([1]; T = 0): <0.2 % w/w; Assay ([1]; T = 1 Month, 40° C./75% RH): 98.7 % w/w; HPLC purity ([1]; T = 1 Month, 40° C./75% RH): 99.79 a/a %; Impurity at RRT 0.96 ([1]; T = 1 Month, 40° C./75% RH): 0.07; Impurity at RRT 1.84 ([1]; T = 1 Month, 40° C./75% RH): 0.08; Assay ([1]; T = 3 Month, 25° C./60% RH): 96.3 % w/w; HPLC purity ([1]; T = 3 Month, 25° C./60% RH): 99.77 a/a %; Impurity at RRT 0.96 ([1]; T = 3 Month, 25° C./60% RH): 0.07; Impurity at RRT 1.84 ([1]; T = 3 Month, 25° C./60% RH): 0.05; Assay ([1]; T = 3 Month, 40° C./75% RH): 93.8 % w/w; HPLC purity ([1]; T = 3 Month, 40° C./75% RH): 99.75 a/a %; Impurity at RRT 0.96 ([1]; T = 3 Month, 40° C./75% RH): 0.07; Impurity at RRT 1.84 ([1]; T = 3 Month, 40° C./75% RH): 0.05; Water (KF) ([1]; T = 3 Month, 40° C./75% RH): <0.2 % w/w; weight gain (moisture sorption) ([2]; 5% to 90% relative humidity, room temperature, listed as Crystalline 3-(1R,3s,5S)-3-((7-((5-methyl-1H-pyrazol-3-yl)amino)-1,6-naphthyrid))): less than 0.15%; hygroscopicity ([2]; two cycles of sorption and desorption, 25° C.): non-hygroscopic

Question: With `Cc1cc(Nc2cc3ncccc3c(N[C@@H]3C[C@H]4CC[C@@H](C3)N4CCC#N)n2)n[nH]1` [Example 1, 3-((1R,3s,5S)-3-((7-((5-methyl-1H-pyrazol-3-yl)amino)-1,6-naphthyridin-5-yl)amino)-8-azabicyclo[3.2.1]octan-8-yl)propanenitrile] as the compound, how does the plasma concentration [3] read?
Answer: < 1 ng/mL

Question: What about the “drug concentration in stool samples” value ([4]; healthy human subjects) of the same compound?
Answer: high drug concentration

Question: What about the Cmax at 14 days [4, 9] of the same compound?
Answer: < 15 ng/mL

Question: What about the Cmax at 14 days [4, 10] of the same compound?
Answer: ≤ 30 ng/mL

Question: What about the Cmax [4, 9] of the same compound?
Answer: < 50 ng/mL

Question: And the Cmax [4, 10]?
Answer: ≤ 100 ng/mL

Question: What about the “minimal dose that caused a significant anti-colitic effect” value ([5]; mouse oxazolone-induced colitis) of the same compound?
Answer: 1 mg/kg

Question: What about the “decrease in DAI score as compared with vehicle treated animals” value ([5]; mouse, PO, 1, 3, and/or 10 mg/kg BID) of the same compound?
Answer: statistically significant decrease

Question: And the “treatment effect on B and T cell populations” value (mouse splenic NK cells)?
Answer: No treatment effect

Question: And the IC50 [6]?
Answer: 31.6 to 200 nM

Question: What about the IC50 [7] of the same compound?
Answer: 31.6 to 200 nM

Question: What about the Kp at 6 hours ([8]; 6 hours post dose, read-out: ratio of concentration in GI tissue to plasma) of the same compound?
Answer: 9 to 165

Question: And the Kp at 24 hours ([8]; 24 hours post dose, read-out: GI tissue to plasma ratio)?
Answer: 7 to 30

Question: What about the Kp (in vivo) of the same compound?
Answer: > 450
